This is an account of results in patent publication US11866482B2, “System and method for homogenous GPCR phosphorylation and identification of beta-2 adrenergic receptor positive allosteric modulators” (Duke University, priority 2018, dated 2024).

Data set [1] deals with T1, β2AR (Homo sapiens, UniProt P07550). Put plainly: ISO-induced G protein-mediated cAMP production, endogenously expressed β2AR. The format is cell-based. To be noted: FIGS. 15A and 15B. For orientation: Changes in cAMP serve as a functional read-out for many G protein-coupled receptors.
In data set [2] the target is T1, β2AR. Put plainly: 3H-FEN agonist binding to β2AR in cell membranes. On the set-up: host or cells: cell membranes.
Description: Accordingly, these 50 potential hits from the selection were tested for their ability to increase binding of a radiolabeled agonist, ^3H-fenoterol (^3H-FEN) to the β2AR in membrane preparations, both in the absence and presence of transducers (FIGS. 14E and 14F).
Another feature of allosteric molecules observed in both binding experiments is the “ceiling” effect.
The target of data set [3] is β2AR (Homo sapiens, UniProt P07550, N187E). Put plainly: ISO competition binding against 125I-CYP in presence of PAM, β2AR reconstituted in HDL particles. Particulars: ISO vs 125I-CYP.
Data set [4] has as its target T2, M2Rpp (Homo sapiens, UniProt P08172).
T2 sequence (P08172 1-466): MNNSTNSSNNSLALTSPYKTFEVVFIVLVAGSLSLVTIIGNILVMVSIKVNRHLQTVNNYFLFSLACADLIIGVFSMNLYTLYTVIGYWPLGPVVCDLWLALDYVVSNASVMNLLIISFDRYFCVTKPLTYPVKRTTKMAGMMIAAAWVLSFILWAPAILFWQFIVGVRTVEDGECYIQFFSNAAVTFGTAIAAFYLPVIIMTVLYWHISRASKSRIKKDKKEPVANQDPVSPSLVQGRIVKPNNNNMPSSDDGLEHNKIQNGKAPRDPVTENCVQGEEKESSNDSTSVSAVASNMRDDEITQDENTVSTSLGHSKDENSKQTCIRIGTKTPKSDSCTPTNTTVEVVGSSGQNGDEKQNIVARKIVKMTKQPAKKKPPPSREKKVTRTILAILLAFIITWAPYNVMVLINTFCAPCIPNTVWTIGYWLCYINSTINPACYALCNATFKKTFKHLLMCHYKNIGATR
The data set is described as follows: [3H]-NMS competition binding, sortase-ligated M2Rpp HDLs.
Description: (§1) Radioligand Binding: All equilibrium competition radioligand binding studies were conducted in a final volume of 200 μL containing HDL-receptor, radioligand, a titration of unlabeled competitor, and the presence or absence of the indicated transducer protein. All components were diluted in assay buffer containing 20 mM HEPES, pH 7.4, 100 mM NaCl, and 1 mg/mL bovine serum albumin (BSA). […] G protein or βarr1 were used at a final concentration of 100 nM or 1 μM, respectively, unless specified otherwise. Binding reactions proceeded at room temperature and were harvested onto glass-fiber filters (GFB) with 0.3% polyethyleneimine (PEI) using a 96-well Brandel harvester. Binding data were analyzed in GraphPad Prism using a sigmoidal dose-response curve fit, and differences in log IC50 values were analyzed by one-way ANOVA.

Data set [5] deals with T2, M2Rpp. Put plainly: In vitro G protein GTPase assay, M2Rpp HDLs (Gi). Particulars: FIG. 11.
Description: (§2) G protein GTPase Assay: The GTPase activity of Gαs or Gαi was measured in vitro using the GTPase Glo Assay (Promega) with the following modifications. Final reaction buffer consisted of 20 mM HEPES, pH 7.4, 100 mM NaCl, 10 mM MgCl2, and 1 mg/mL BSA. HDL-β2AR (4 nM), −M2R (100 nM), or MOR (100 nM) was incubated in the absence or presence of the indicated agonist (5 μM) and βarr1 (1 μM) for 15 min at room temperature.
(§3) To test this, an in vitro GTPase activity assay was performed that can quantitatively measure agonist-induced receptor activation of G protein.
A further data set deals with β1AR (Homo sapiens, UniProt P08588). Put plainly: β1AR-mediated cAMP production. Particulars: FIG. 21B. The format is cell-based.
Sequence of β1AR (P08588 whole entry): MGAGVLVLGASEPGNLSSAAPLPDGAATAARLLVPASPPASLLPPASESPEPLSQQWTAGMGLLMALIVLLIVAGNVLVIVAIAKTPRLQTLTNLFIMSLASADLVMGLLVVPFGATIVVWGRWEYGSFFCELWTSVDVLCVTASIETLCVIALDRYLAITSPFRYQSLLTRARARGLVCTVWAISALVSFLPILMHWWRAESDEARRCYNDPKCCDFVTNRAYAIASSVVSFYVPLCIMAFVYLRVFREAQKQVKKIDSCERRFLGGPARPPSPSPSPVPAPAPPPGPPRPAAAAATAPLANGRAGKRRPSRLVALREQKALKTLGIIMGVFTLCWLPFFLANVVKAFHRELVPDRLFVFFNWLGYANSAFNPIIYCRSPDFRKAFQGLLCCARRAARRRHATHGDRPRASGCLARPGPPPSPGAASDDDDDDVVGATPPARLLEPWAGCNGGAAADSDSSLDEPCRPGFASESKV
Data set [6] deals with T3, MORpp (Homo sapiens, UniProt P35372). The data set is described as follows: In vitro G protein GTPase assay, MORpp HDLs (Gi). To be noted: FIG. 11.
T3 sequence (P35372 with tags, fused parts or gaps): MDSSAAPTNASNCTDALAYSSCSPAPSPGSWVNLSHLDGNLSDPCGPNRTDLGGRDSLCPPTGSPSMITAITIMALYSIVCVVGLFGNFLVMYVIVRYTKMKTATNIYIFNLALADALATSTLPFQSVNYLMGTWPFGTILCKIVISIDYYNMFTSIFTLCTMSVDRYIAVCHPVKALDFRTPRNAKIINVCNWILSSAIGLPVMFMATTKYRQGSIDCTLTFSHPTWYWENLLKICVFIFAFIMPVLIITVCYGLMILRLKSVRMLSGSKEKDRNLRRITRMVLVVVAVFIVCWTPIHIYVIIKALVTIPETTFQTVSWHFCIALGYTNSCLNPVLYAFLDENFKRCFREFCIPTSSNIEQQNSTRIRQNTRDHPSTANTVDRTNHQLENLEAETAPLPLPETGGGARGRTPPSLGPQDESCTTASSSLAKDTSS
Description: as §2, §3
Data set [7] deals with T3, MORpp. The data set is described as follows: [3H]-Naloxone competition binding, sortase-ligated MORpp HDLs.
Description: as §1

In the case of `COc1ccc(Sc2ccc(S(=O)(=O)Nc3cccc(F)c3)cc2C(=O)N[C@@H](CC(N)=O)Cc2ccc(C(C)(C)C)cc2)cc1` [Cmpd-43, (R)—N-(4-Amino-1-(4-(tert-butyl)phenyl)-4-oxobutan-2-yl)-5-(N-(3-fluorophenyl)sulfamoyl)-2-((4-methoxyphenyl)thio)benzamide], on β2AR [1], the “effect on ISO-induced cAMP production” value is on record as “increased the maximal response induced by ISO as well as potentiated the EC50 value”. Besides, the “increase in 3H-FEN binding to the β2AR” value at β2AR [2] is “dose-dependently increase the binding”. The “potentiation of the IC50 value of ISO” value at β2AR [3] was about 30 fold.

In the case of `C[N+](C)(C)CCOC(N)=O` [carbachol], the “increase in agonist affinity by βarr1” value on M2Rpp [4] turned out to be 57 fold. In addition, the “increase in agonist affinity induced by G protein” value on M2Rpp [4] (Gi heterotrimer) is over 100 fold.

On to `C[N+](C)(C)CC#CCOC1=NOCC1` [iperoxo], for which the “effects of G protein and βarr on agonist affinity” value on M2Rpp [4] (FIGS. 9E and 9F) is “comparable effects of G protein and βarr”. The “G protein activation (GTP hydrolysis)” value at M2Rpp [5] was “increases G protein activation”.

Regarding `COc1ccc(Sc2ccc(S(=O)(=O)N(C)C(C)C)cc2C(=O)N[C@@H](CC(N)=O)Cc2ccc(C(C)(C)C)cc2)cc1` [Cmpd-6, (R)—N-(4-Amino-1-(4-(tert-butyl)phenyl)-4-oxobutan-2-yl)-5-(N-isopropyl-N-methylsulfamoyl)-2-((4-methoxyphenyl)thio)benzamide], the “changes in ISO dose response pattern of cAMP production” value at β1AR is “Marginal changes”.

Regarding `C[C@@H](NC(=O)[C@@H](N)Cc1ccc(O)cc1)C(=O)NCC(=O)N(C)[C@@H](Cc1ccccc1)C(=O)NCCO` [DAMGO], the “G protein activation (GTP hydrolysis)” value at MORpp [6] is recorded as “increases G protein activation”. In addition, the “increase in agonist affinity by βarr1” value at MORpp [7] came to 2 fold. For the same compound, the “increase in agonist affinity induced by G protein” value on MORpp [7] (Gi heterotrimer) is recorded as over 100 fold.
